Results reported in ChEMBL document CHEMBL1139469, “Synthesis and 3D QSAR of new pyrazolo[3,4-b]pyridines: potent and selective inhibitors of A1 adenosine receptors” (J Med Chem, 2005).

Target: Adenosine receptor A1 (Bos taurus) (UniProt P28190)
Experiment: Displacement of [3H]DPCPX from bovine adenosine A1 receptor in bovine cortical membranes

For CCOc1ccc2c(O)cc(-c3ccccc3)nc2n1, which Ki is on record?
Its Ki is 5.01 nM.

Cc1ccc2c(O)ccnc2n1 was tested. Which Ki did it give?
Its Ki is 7940 nM.

CN(C)c1ccc2c(O)cc(-c3ccccc3)nc2n1 was tested. Which Ki did it give?
Its Ki is 0.631 nM.

Which Ki does the source give for COc1ccc(-c2nnc3nc4ccccc4n3c2O)cc1OC here?
The Ki was 2000 nM.

With Cn1c2ccccc2n2c(=O)c(-c3ccco3)nnc12 as the molecule, how does the Ki read?
Its Ki is 794 nM.

CCOC(=O)c1cnc2c(cnn2CC(Cl)c2ccccc2)c1NC1CC1 (centres undefined) was tested. Which Ki did it give?
The Ki was 126 nM.

For Cc1ccc2c(NN)cc(-c3ccccc3)nc2n1, which Ki is on record?
Its Ki is 100 nM.

Cn1c2ccccc2n2c(=O)c(-c3ccccc3)nnc12 was tested. Which Ki did it give?
The Ki was 63.1 nM.

How did the Ki turn out when O=c1c(-c2ccco2)nnc2n(-c3ccccc3)c3ccccc3n12 was run?
Its Ki is 316 nM.

Cn1c2ccccc2n2c(=O)c(-c3cccs3)nnc12 was tested. Which Ki did it give?
Its Ki is 79.4 nM.

How did the Ki turn out when Cc1cccc(-n2nc3c(N)nc4ccccc4n3c2=O)c1 was run?
Its Ki is 20 nM.

Cc1ccc2c(O)cc(-c3ccc(F)cc3)nc2n1 was tested. Which Ki did it give?
The Ki was 5.01 nM.

With O=c1[nH]nc2c(NCCc3ccccc3)nc3ccccc3n12 as the molecule, how does the Ki read?
Its Ki is 5.01 nM.

How did the Ki turn out when Cc1ccc2c(O)cc(-c3ccccc3)nc2n1 was run?
The Ki was 5.01 nM.

With Cc1cccc(-n2nc3c(NC4CCCCC4)nc4ccccc4n3c2=O)c1 as the molecule, how does the Ki read?
Its Ki is 3.98 nM.

With COc1ccc2c(O)cc(-c3ccccc3)nc2n1 as the molecule, how does the Ki read?
Its Ki is 1.58 nM.

With Cc1nnc2n(C)c3ccccc3n2c1=O as the molecule, how does the Ki read?
The Ki was 10000 nM.

Which Ki does the source give for Cc1ccc2c(O)cc(-c3ccc(N)cc3)nc2n1 here?
The Ki was 6.31 nM.

Oc1cc(-c2ccccc2)nc2ncccc12 was tested. Which Ki did it give?
Its Ki is 15.8 nM.

For O=C(Nc1nc2ccccc2n2c(=O)n(-c3ccc(Cl)cc3)nc12)c1ccccc1, which Ki is on record?
Its Ki is 100 nM.

Cc1ccc2c(N)cc(-c3ccccc3)nc2n1 was tested. Which Ki did it give?
Its Ki is 15.8 nM.

Oc1ccc(-c2nnc3nc4ccccc4n3c2O)cc1 was tested. Which Ki did it give?
Its Ki is 251 nM.

O=c1c(-c2ccccc2)nnc2n(-c3ccccc3)c3ccccc3n12 was tested. Which Ki did it give?
Its Ki is 20 nM.

For Nc1nc2ccccc2n2c(=O)n(-c3cccc(F)c3)nc12, which Ki is on record?
The Ki was 31.6 nM.

With Cn1c(=O)ccc2c(O)cc(-c3ccccc3)nc21 as the molecule, how does the Ki read?
The Ki was 5010 nM.

Which Ki does the source give for CCCNc1c(C(=O)OCC)cnc2c1cnn2CC(Cl)c1ccccc1 (centres undefined) here?
The Ki was 100 nM.

For CCCc1cc(O)c2ccc(N)nc2n1, which Ki is on record?
The Ki was 200 nM.

With COc1ccc(-n2nc3c(N)nc4ccccc4n3c2=O)cc1 as the molecule, how does the Ki read?
The Ki was 316 nM.

O=c1n(-c2ccccc2)nc2c(NC3CCCC3)nc3ccccc3n12 was tested. Which Ki did it give?
The Ki was 0.398 nM.

Oc1cc(-c2ccccc2)nc2nc(NC3CCCCC3)ccc12 was tested. Which Ki did it give?
The Ki was 79.4 nM.

For Cc1ccc2c(NC3CCCCC3)cc(-c3ccccc3)nc2n1, which Ki is on record?
Its Ki is 31.6 nM.

Which Ki does the source give for CCn1c(-c2ccccc2)cc(=O)c2ccc(C)nc21 here?
Its Ki is 501 nM.

Which Ki does the source give for O=c1n(-c2cccc(F)c2)nc2c(NC3CCCCC3)nc3ccccc3n12 here?
The Ki was 5.01 nM.

For CCCCNc1nc(SC)nc2c1cnn2CC(Cl)c1ccccc1 (centres undefined), which Ki is on record?
Its Ki is 2000 nM.

O=c1n(-c2cccc(F)c2)nc2c(NC3CCCC3)nc3ccccc3n12 was tested. Which Ki did it give?
The Ki was 1 nM.

Which Ki does the source give for CCOc1cc(-c2ccccc2)nc2nc(Br)ccc12 here?
Its Ki is 50.1 nM.

Which Ki does the source give for COc1cc(-c2ccccc2)nc2nc(C)ccc12 here?
The Ki was 6310 nM.

For Oc1cc(-c2ccccc2)nc2nc(Oc3ccccc3)ccc12, which Ki is on record?
The Ki was 25.1 nM.

How did the Ki turn out when Cc1cc(O)c2ccc(=O)[nH]c2n1 was run?
The Ki was 10000 nM.

Cc1ccc2c(Cl)cc(-c3ccccc3)nc2n1 was tested. Which Ki did it give?
Its Ki is 1000 nM.

COc1cc(-c2ccccc2)nc2c1ccc(=O)n2C was tested. Which Ki did it give?
The Ki was 1260 nM.

With CC(=O)Nc1ccc2c(O)cc(-c3ccccc3)nc2n1 as the molecule, how does the Ki read?
The Ki was 316 nM.

For Nc1nc2ccccc2n2c(=O)n(-c3ccccc3)nc12, which Ki is on record?
The Ki was 10 nM.

For Oc1c(-c2ccccc2)nnc2nc3ccccc3n12, which Ki is on record?
Its Ki is 79.4 nM.

How did the Ki turn out when CSc1nc(NCCc2ccccc2)c2cnn(CC(Cl)c3ccccc3)c2n1 (centres undefined) was run?
The Ki was 10000 nM.

Which Ki does the source give for O=c1[nH]nc2c(NCc3ccccc3)nc3ccccc3n12 here?
Its Ki is 50.1 nM.

CCCNc1nc(SC)nc2c1cnn2CC(Cl)c1ccccc1 (centres undefined) was tested. Which Ki did it give?
Its Ki is 1000 nM.

How did the Ki turn out when CCCc1cc(O)c2ccc(C)nc2n1 was run?
The Ki was 50.1 nM.

How did the Ki turn out when O=C(Nc1ccccc1)Nc1nc2ccccc2n2c(=O)n(-c3ccc(Cl)cc3)nc12 was run?
The Ki was 50.1 nM.

For Oc1cc(-c2ccccc2)nc2nc(Br)ccc12, which Ki is on record?
Its Ki is 0.794 nM.

With CCOC(=O)c1cnc2c(cnn2CC(Cl)c2ccccc2)c1NCc1ccccc1 (centres undefined) as the molecule, how does the Ki read?
The Ki was 126 nM.

With Cn1c2ccccc2n2c(=O)c(-c3ccc(Cl)cc3)nnc12 as the molecule, how does the Ki read?
The Ki was 10000 nM.

With Oc1cc(-c2ccccc2)nc2nc(Cl)ccc12 as the molecule, how does the Ki read?
Its Ki is 0.158 nM.

How did the Ki turn out when Oc1ccc(-c2nnc3nc4ccccc4n3c2O)cc1O was run?
Its Ki is 501 nM.
